From ChEMBL document CHEMBL4138123, “Design, synthesis and biological evaluation of novel pyrazolochalcones as potential modulators of PI3K/Akt/mTOR pathway and inducers of apoptosis in breast cancer cells” (Eur J Med Chem, 2017) come the findings set out here.

Test [1] concerns MCF7. The test is described as follows: Cytotoxicity against human MCF7 cells assessed as growth inhibition after 48 hrs by MTT assay. The format is functional, cell-based. Conditions: MCF7, 48 h. Background: Tetrazolium dyes change colour on reduction, which living cells bring about.
In test [2] the test system is MDA-MB-231. Nature of the test: Cytotoxicity against human MDA-MB-231 cells assessed as growth inhibition after 48 hrs by MTT assay. The format is functional, cell-based. Conditions: MDA-MB-231, 48 h.
The test system of test [3] is MCF7. Nature of the test: Induction of apoptosis in human MCF7 cells assessed as necrotic cells at 2 uM after 24 hrs by Annexin-V FITC/propidium iodide staining-based FACS analysis (reference value: 0.2%). The format is functional. A general note: A flow cytometer gives signals particle by particle.
Test [4] deals with MCF7. The test is described as follows: Induction of intrinsic apoptosis in human MCF7 cells assessed as effect on mitochondrial membrane depolarization at 2 uM after 18 hrs by DiOC6 staining-based FACS analysis (reference value: 2%). The format is functional.
For test [5], the system named is MCF7. Nature of the test: Cell cycle arrest in human MCF7 cells assessed as accumulation at G0/G1 phase at 2 uM after 24 hrs by flow cytometric analysis (reference value: 18.4%). The format is functional.
Test [6] relates to MCF7. Nature of the test: Induction of apoptosis in human MCF7 cells assessed as early apoptotic cells at 2 uM after 24 hrs by Annexin-V FITC/propidium iodide staining-based FACS analysis (reference value: 0.5%). The format is functional.
Test [7] deals with MCF7. Nature of the test: Induction of intrinsic apoptosis in human MCF7 cells assessed as effect on mitochondrial membrane depolarization by measuring mean fluorescence intensity at 2 uM after 18 hrs by DiOC6 staining-based FACS analysis (reference value: 463). The format is functional.
The test system of test [8] is MCF7. Nature of the test: Induction of apoptosis in human MCF7 cells assessed as viable cells at 2 uM after 24 hrs by Annexin-V FITC/propidium iodide staining-based FACS analysis (reference value: 93.9%). The format is functional. Conditions: MCF7, 24 h, read-out: Activity.
In test [9] the test system is MCF7. The test is described as follows: Induction of intrinsic apoptosis in human MCF7 cells assessed as effect on mitochondrial membrane depolarization at 2 uM after 5 hrs by DiOC6 staining-based FACS analysis relative to control. The format is functional.
For test [10], the system named is MCF7. Nature of the test: Cell cycle arrest in human MCF7 cells assessed as accumulation at G2/M phase at 2 uM after 48 hrs by flow cytometric analysis (reference value: 8.1%). The format is functional.
Test [11] concerns MCF7. The test is described as follows: Induction of apoptosis in human MCF7 cells assessed as late apoptotic cells at 2 uM after 24 hrs by Annexin-V FITC/propidium iodide staining-based FACS analysis (reference value: 5.4%). The format is functional.
The subject of test [12] is MCF7. Nature of the test: Cell cycle arrest in human MCF7 cells assessed as accumulation at S phase at 2 uM after 48 hrs by flow cytometric analysis (reference value: 57.7%). The format is functional.
The subject of test [13] is MCF7. Nature of the test: Cell cycle arrest in human MCF7 cells assessed as accumulation at G2/M phase at 2 uM after 24 hrs by flow cytometric analysis (reference value: 2.35%). The format is functional.
The subject of test [14] is MCF7. Nature of the test: Cell cycle arrest in human MCF7 cells assessed as accumulation at G0/G1 phase at 2 uM after 48 hrs by flow cytometric analysis (reference value: 34.2%). The format is functional.
The subject of test [15] is MCF7. Nature of the test: Cell cycle arrest in human MCF7 cells assessed as accumulation at S phase at 2 uM after 24 hrs by flow cytometric analysis (reference value: 79.1%). The format is functional.

A word on the IC50: it is the concentration needed to halve the response being measured. In the case of `O=C1CCCC/C1=C\c1cc(-c2ccc3c(c2)OCO3)n[nH]1`, the values for the IC50 in test [1] and in test [2] were 15.1 µM and 11.8 µM, respectively.
For `COc1cc(-c2cc(/C=C3\CCCCC3=O)[nH]n2)cc(OC)c1OC` the same measures were 10.1 µM and 17.8 µM.
For `COc1ccc2c(c1)C/C(=C\c1cc(-c3cc(OC)c(OC)c(OC)c3)n[nH]1)C2=O` the same measures were 2.1 µM and 2 µM.
As to `COc1ccc(/C=C\c2cc(OC)c(OC)c(OC)c2)cc1O` [COMBRETASTATIN A4], the IC50 in test [1] amounted to 0.12 µM; in [2], 0.17 µM. Also, the Activity in test [3] was 1.3%; in [4], 46%; in [5], 0%; in test [6] it was 6.1%; in test [9], 7.6%; in test [10], 85.5%. Also, the Activity was found to be 16.8% in [11]; 12% in test [12]; 56.3% in [13]; 2.4% in [14]; 46.3% in test [15]. Moreover, the Flu intensity in [7] is 558. Besides, the viability at 2 µM in test [8] amounted to 75.8%.
For the compound `CC(=O)/C=C/c1cc(-c2ccc3c(c2)OCO3)n[nH]1`, the results for the IC50 in test [1] and in [2] were 21.6 µM and 20.2 µM, respectively.
For the compound `COc1cc2c(cc1OC)C(=O)/C(=C/c1cc(-c3cc(OC)c(OC)c(OC)c3)n[nH]1)C2`, the values for the IC50 in test [1] and in test [2] were 2 µM and 2.5 µM, respectively.
For `COc1cc(-c2cc(/C=C/C(=O)c3ccccc3)[nH]n2)cc(OC)c1OC` the same measures were 2.1 µM and 2.3 µM.
Take `O=C(/C=C/c1cc(-c2ccc3c(c2)OCO3)n[nH]1)c1ccc2c(c1)OCO2`: the IC50 in test [1] amounted to 2.1 µM; in [2], 3.3 µM.
For `COc1ccc(-c2cc(/C=C/C(=O)c3ccc4c(c3)OCO4)[nH]n2)cc1` the same measures were 2.5 µM and 3.3 µM.
For `COc1cc(-c2cc(/C=C/C(C)=O)[nH]n2)cc(OC)c1OC`, in that order: 20.1 µM and 27.3 µM.
For `COc1ccc(C(=O)/C=C/c2cc(-c3ccc4c(c3)OCO4)n[nH]2)cc1`, in that order: 3.5 µM and 3.5 µM.
Regarding `O=C1/C(=C/c2cc(-c3ccc4c(c3)OCO4)n[nH]2)CCc2ccccc21`, the figures for the IC50 in [1] and in [2] were 9.9 µM and 12.6 µM, respectively.
For `O=C(/C=C/c1cc(-c2ccc3c(c2)OCO3)n[nH]1)c1ccc(Cl)cc1` the same measures were 15 µM and 17.5 µM.
`COc1cccc2c1C(=O)c1c(O)c3c(c(O)c1C2=O)C[C@@](O)(C(=O)CO)C[C@@H]3O[C@H]1C[C@H](N)[C@H](O)[C@H](C)O1.Cl` [DOXORUBICIN HYDROCHLORIDE]: the Activity turned out to be 82.5% in [5]; 0.8% in [10]; 40.1% in test [12]; 1.2% in [13]; 59.1% in [14]; 16.2% in test [15].
On to `O=C(/C=C/c1cc(-c2ccc3c(c2)OCO3)n[nH]1)c1ccc(F)c(F)c1`, for which the IC50 in [1] was 8.1 µM; in test [2] it was 12.1 µM.
For `COc1ccc(C(=O)/C=C/c2cc(-c3ccc4c(c3)OCO4)n[nH]2)cc1F`, in that order: 13.5 µM and 15.9 µM.
For `COc1ccc2c(c1)C/C(=C\c1cc(-c3ccc4c(c3)OCO4)n[nH]1)C2=O`, in that order: 2.7 µM and 4.1 µM.
For `O=C1/C(=C/c2cc(-c3ccc4c(c3)OCO4)n[nH]2)Cc2ccccc21`, in that order: 5.1 µM and 8.3 µM.
Consider `Nc1ccc(C(=O)/C=C/c2cc(-c3ccc4c(c3)OCO4)n[nH]2)cc1`, for which the IC50 in test [1] was 3.5 µM; in [2] it was 5.1 µM.
For `COc1ccc(C(=O)/C=C/c2cc(-c3cc(OC)c(OC)c(OC)c3)n[nH]2)cc1F`, in that order: 3 µM and 2.7 µM.
For `O=C(/C=C/c1cc(-c2ccc3c(c2)OCO3)n[nH]1)c1ccccc1`, in that order: 8 µM and 12.1 µM.
For `COc1cc(-c2cc(/C=C/C(=O)c3ccc(Cl)cc3)[nH]n2)cc(OC)c1OC` the same measures were 11.6 µM and 26 µM.
Regarding `O=C(/C=C/c1cc(-c2ccc3c(c2)OCO3)n[nH]1)c1ccc(Cl)c(Cl)c1`, the IC50 in test [1] was determined as 10.8 µM; in test [2], 14.8 µM.
For `COc1ccc(-c2cc(/C=C/C(=O)c3cc(OC)c(OC)c(OC)c3)[nH]n2)cc1`, in that order: 2 µM and 2.4 µM.
With `COc1cc(-c2cc(/C=C3\CCc4ccccc4C3=O)[nH]n2)cc(OC)c1OC`, the IC50 in [1] was 8.5 µM; in test [2] it was 9.5 µM.
For `COc1cc(-c2cc(/C=C3\Cc4ccccc4C3=O)[nH]n2)cc(OC)c1OC` the same measures were 4.8 µM and 7.1 µM.
